Results: patent publication US20240158383A1, “RIBONUCLEOTIDE REDUCTASE (RNR) INHIBITORS AND USES THEREOF” (Boundless Bio, Inc., priority 2021, published 2024)

What was measured:
RNR (RNR1:RNR2) = RNR (RNR1:RNR2) (Homo sapiens (Human), UniProt P23921+P31350); assay: RNR enzyme activity, rapid-fire mass spectrometry (RFMS) assay; assay type: biochemical; conditions: [RNR] 50 nM, 1:1 RNR1:RNR2, [CDP] 5 μM, [ATP] 1 mM, 37° C., 45 min
How it was run: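 RNR1:RNR2 (1:1, 50 nM final) was preincubated 15 min at room temperature with compound (10 nM–30 μM), then reacted 45 min at 37° C. with 5 μM CDP and 1 mM ATP, without NADPH. Reactions were stopped with 6% formic acid and read by RapidFire mass spectrometry.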

[1] = system: pCHK1 (S345) in Colo320 DM cells; assay: CHK1 cellular activity (phospho-CHK1 AlphaLisa); assay type: cell-based, human; conditions: Homo sapiens, COLO 320DM, 16 h, compound overnight (approximately 16 hours)
How it was run: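 Colo320 DM cells (50,000/well, RPMI-1640 with 10% FBS) were treated with compound overnight (~16 h) at 37 °C, final DMSO <0.5%. Lysates were assayed for pCHK1 (S345) by AlphaLisa SureFire, a replication-stress marker downstream of RNR inhibition.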

Sequence of RNR (RNR1:RNR2) (P23921 whole entry): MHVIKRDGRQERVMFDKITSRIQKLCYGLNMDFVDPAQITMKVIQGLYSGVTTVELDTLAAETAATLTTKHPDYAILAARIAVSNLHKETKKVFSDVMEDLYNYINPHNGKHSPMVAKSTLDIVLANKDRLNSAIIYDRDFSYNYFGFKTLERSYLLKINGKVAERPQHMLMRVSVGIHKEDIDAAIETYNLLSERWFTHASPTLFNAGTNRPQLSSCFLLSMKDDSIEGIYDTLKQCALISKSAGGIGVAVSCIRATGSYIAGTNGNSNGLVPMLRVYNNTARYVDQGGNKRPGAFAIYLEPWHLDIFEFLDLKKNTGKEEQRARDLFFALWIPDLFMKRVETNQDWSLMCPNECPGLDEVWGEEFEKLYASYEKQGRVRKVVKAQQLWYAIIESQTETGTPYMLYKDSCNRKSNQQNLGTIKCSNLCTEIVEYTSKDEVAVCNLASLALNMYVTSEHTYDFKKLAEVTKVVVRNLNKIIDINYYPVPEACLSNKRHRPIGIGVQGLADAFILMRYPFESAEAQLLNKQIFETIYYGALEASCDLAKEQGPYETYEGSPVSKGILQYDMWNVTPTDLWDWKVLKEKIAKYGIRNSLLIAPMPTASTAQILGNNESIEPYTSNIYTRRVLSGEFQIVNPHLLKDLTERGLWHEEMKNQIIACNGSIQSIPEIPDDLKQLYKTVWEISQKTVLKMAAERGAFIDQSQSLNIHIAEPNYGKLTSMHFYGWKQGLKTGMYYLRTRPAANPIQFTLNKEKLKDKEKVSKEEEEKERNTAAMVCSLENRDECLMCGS
Sequence of RNR (RNR1:RNR2) (P31350 whole entry): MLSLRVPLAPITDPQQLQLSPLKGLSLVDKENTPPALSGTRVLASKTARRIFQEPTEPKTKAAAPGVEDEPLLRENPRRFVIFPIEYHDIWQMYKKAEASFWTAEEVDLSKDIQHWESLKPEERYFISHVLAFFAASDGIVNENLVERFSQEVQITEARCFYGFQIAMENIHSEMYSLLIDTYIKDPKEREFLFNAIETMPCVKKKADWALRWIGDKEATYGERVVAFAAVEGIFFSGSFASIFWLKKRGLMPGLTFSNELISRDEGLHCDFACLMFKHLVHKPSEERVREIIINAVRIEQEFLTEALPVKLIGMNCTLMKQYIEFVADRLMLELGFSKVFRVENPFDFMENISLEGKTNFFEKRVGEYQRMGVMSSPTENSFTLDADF

Question: Which results are given for `Cc1ccc(F)c([C@@H](C)[C@H](NS(=O)(=O)c2ccc(Cl)cc2N2CCOCC2)c2nn[nH]n2)c1C` [Example 78, 4-chloro-N-((1S,2R)-2-(6-fluoro-2,3-dimethylphenyl)-1-(2H-tetrazol-5-yl)propyl)-2-morpholinobenzenesulfonamide]?
Answer: IC50 (RNR (RNR1:RNR2)): 0.1 to 1 µM; IC50 [1]: 30 to 50 µM

Question: What does the source list for `Cc1ccc(F)c([C@@H](C)[C@H](NS(=O)(=O)c2ccc(Cl)cc2N2CCN(C)CC2)c2nn[nH]n2)c1C` [Example 79, 4-chloro-N-((1S,2R)-2-(6-fluoro-2,3-dimethylphenyl)-1-(2H-tetrazol-5-yl)propyl)-2-(4-methylpiperazin-1-yl)benzenesulfonamide]?
Answer: IC50 (RNR (RNR1:RNR2)): 0.1 to 1 µM; IC50 [1]: 50 to 100 µM

Question: `Cc1ccc(F)c([C@@H](C)[C@H](NS(=O)(=O)c2ccc(Cl)cc2N2CCCCC2)c2nn[nH]n2)c1C` [Example 80, 4-chloro-N-((1S,2R)-2-(6-fluoro-2,3-dimethylphenyl)-1-(2H-tetrazol-5-yl)propyl)-2-(piperidin-1-yl)benzensulfonamide] was tested. Which IC50 (RNR (RNR1:RNR2)) did it give?
Answer: The IC50 was 0.1 to 1 µM.

Question: What about the IC50 [1] of the same compound?
Answer: Its IC50 is 30 to 50 µM.
